Where two headings read alike, the source gives them in different places.
Tests used:
[1] = test system: TERC 3′ end processing in DC patient iPSCs; assay: TERC 3′ end processing by RACE in DC patient / PARN-mutant iPSCs; assay type: cell-based, human; conditions: for minimal effective concentration: Homo sapiens, iPSC, read-out: iPSC-based RACE activity
In short: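 Activity binned by concentration giving effect in DC patient iPSCs: "+" at 1 μM, "++" above 1 nM and below 1 μM, "+++" below 1 nM; ND, not determined.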

[2] = test system: telomere length in DC patient iPSCs; assay: telomere length / telomere elongation in DC patient iPSCs; assay type: cell-based, human; conditions: for minimal effective concentration: Homo sapiens, iPSC, read-out: iPSC-based Telomere length
Description: Compound 266A had activity ˜2-logs higher in the in vitro RNA oligoadenylation assay compared to the parental compound cmpd. 1, approximating the activity of RG7834 (FIG. 7). […] 1. Compounds 295A and 296A had activity 2-3 logs higher in DC patient iPSCs, showing TERC maturation at 1 nM, similar to RG7834 (FIG. 6). […] Referring to Table 1D, “+” refers to activity at 1 μM, “++” refers to activity above 1 nM and below 1 μM, and “+++” refers to activity at <1 nM, “ND” refers to not determined.

rPAPD5 = target: T1, rPAPD5 (Homo sapiens, UniProt Q8NDF8); assay: differential scanning fluorimetry (DSF) binding and stabilization of rPAPD5; conditions: for ΔTm at 1 µM: read-out: ΔTm at 1 μM; for ΔTm at 100 µM: read-out: ΔTm at 100 μM
T1 construct: made in house
In short: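 Differential scanning fluorimetry was used to measure how test compounds bind and thermally stabilize rPAPD5. The reaction contained SYPRO orange dye diluted 1:5000 in […] of buffer with […], 25 mM Tris-HCl, 5 mM MgCl2 and 50 mM KCl. ΔTm was calculated relative to a DMSO control.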

[3] = test system: hepatitis B surface antigen (HBSAg) from HepG2.2.15 cells, a hepatitis B virus-expressing cell line; assay: HBsAg ELISA in supernatant of HepG2.2.15 cells; assay type: cell-based; conditions: HepG2.2.15, 96 h
In short: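 HepG2.2.15 cells plated at 50,000/well, then exposed the next day to 3-fold compound dilutions from 100 μM to 333 pM, with DMSO vehicle as control. After 4 days at 37 °C, HBsAg in the supernatant was measured by ELISA. IC50 obtained by nonlinear fitting of averaged replicates.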

[4] = test system: TERC 3′ end processing in primary CD34+ human hematopoietic stem and progenitor cells (HSPCs); assay: TERC 3′ end processing (RACE) in CRISPR/Cas9-engineered PARN-deficient primary CD34+ HSPCs; assay type: cell-based; conditions: for TERC 3′ end processing by RACE at 100 nM: day 5 (FIG. 40B); for TERC 3′ end processing by RACE at 1 μM: day 5 (FIG. 40A)
Description: Example 167—Restoration of TERC 3′ end processing in primary CD34+ human hematopoietic stem and progenitor cells (HSPCs). To determine the efficacy of exemplified compounds in a disease-relevant stem cell population, we employed a highly-efficient CRISPR-Cas9 ribonucleoprotein transduction strategy to disrupt the PARN gene in primary human CD34+ hematopoietic stem and progenitor cells (HSPCs), or the control locus AAVS1. FIGS. 40A and 40B show extended TERC forms in CRISPR-Cas9 engineered HSPCs deficient in PARN.

[5] = test system: TERC 3′ ends in human CD19+ cells recovered from mice xenotransplanted with HSPCs; assay: TERC 3′ end processing in vivo in human CD19+ cells after xenotransplantation into NBSGW mice; design: species or system immunodeficient NBSGW mice with human HSPCs; conditions: for aberrant TERC oligo-adenylation in xenotransplanted PARN-deficient human blood cells: oral, RACE amplicon sequencing
Description: (§1) Example 168—Restoration of TERC 3′ end processing in vivo in human blood cells after xenotransplantation into immunodeficient mice. To determine the efficacy of orally administered exemplified compounds in primary human HSPCs and blood cells in restoring TERC processing in vivo, highly-efficient CRISPR-Cas9 ribonucleoprotein transduction was employed to disrupt the PARN gene in primary human CD34+ HSPCs or the control locus AAVS1. These genome-edited human HSPCs were xenotransplanted into immunodeficient NOD,B6.SCID Il2rg−/− KitW4l/W41 (NBSGW) mice, which engraft human HSPCs without exposure to radiation or chemotherapy. Six to ten weeks after xenotransplantation, exemplified compounds were administered for 4 to 7 days alongside controls. Thereafter, human hematopoietic cells were recovered from mouse bone marrow, and engraftment was analyzed by flow cytometry. Engrafted human hematopoietic cells were sorted for lineage markers, and CD19+ cells were used for analysis of restoration of TERC 3′ end processing by RNA-ligation mediated 3′ RACE.

[6] = test system: engraftment of CD45+, CD19+, CD34+ human blood cells; assay: engraftment of human blood cells in xenotransplanted mice by flow cytometry; assay type: in vivo, immunodeficient NBSGW mice with human HSPCs
Description: as §1

[7] = patient iPSCs, concentration class at which activity is seen
[8] = 10 μM test compound (Table 2a), read-out: ΔTm at 10 μM
[9] = 10 μM test compound, shift vs DMSO control, read-out: ΔTm (Table 2, starred: the compound was tested at 10 μM)
[10] = 32 mg/kg/dose twice daily for 11 doses (FIG. 41D)
[11] = 32 mg/kg/dose twice daily for 11 doses
[12] = 100 μM test compound, shift vs DMSO control
[13] = 32 mg/kg/dose every other day for 4 days
[14] = 32 mg/kg/dose twice daily for 11 doses, with 250 μM in drinking water

T1 sequence (Q8NDF8 68-698 isoform Q8NDF8-5 limits assumed): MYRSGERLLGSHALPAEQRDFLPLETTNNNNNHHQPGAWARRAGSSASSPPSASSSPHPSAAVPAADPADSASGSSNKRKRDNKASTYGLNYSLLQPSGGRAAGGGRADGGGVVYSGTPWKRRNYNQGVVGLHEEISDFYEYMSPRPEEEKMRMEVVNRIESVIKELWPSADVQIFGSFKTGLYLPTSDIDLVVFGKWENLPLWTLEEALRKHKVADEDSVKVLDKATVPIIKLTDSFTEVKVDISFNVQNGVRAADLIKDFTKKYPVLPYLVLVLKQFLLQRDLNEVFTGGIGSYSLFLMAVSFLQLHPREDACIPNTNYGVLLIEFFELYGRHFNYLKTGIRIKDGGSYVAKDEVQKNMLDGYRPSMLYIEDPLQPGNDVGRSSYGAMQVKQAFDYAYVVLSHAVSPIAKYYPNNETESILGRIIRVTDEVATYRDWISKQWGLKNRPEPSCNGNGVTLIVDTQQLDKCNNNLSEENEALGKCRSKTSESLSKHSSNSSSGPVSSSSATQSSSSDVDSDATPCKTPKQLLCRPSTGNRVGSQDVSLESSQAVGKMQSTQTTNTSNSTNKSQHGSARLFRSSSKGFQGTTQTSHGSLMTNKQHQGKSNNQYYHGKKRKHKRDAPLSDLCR

| SMILES | minimal effective concentration [1, 7] | minimal effective concentration [2, 7] | ΔTm at 1 µM (rPAPD5; 1 μM test compound (Table 2a)) | ΔTm at 10 µM (rPAPD5; [8]) | ΔTm at 10 µM (rPAPD5; [9]) | IC50 [3] | TERC 3′ end processing by RACE at 100 nM [4] | TERC 3′ end processing by RACE at 1 μM [4] | ΔTm at 100 µM (rPAPD5; [12]) | also measured |
| --- | --- | --- | --- | --- | --- | --- | --- | --- | --- | --- |
| O=C(O)c1cc(Cl)ccc1Nc1c(N2CCC(F)CC2)cnc2ccc(Cl)cc12 [Compound 392A, 5-chloro-2-[[6-chloro-3-(4-fluoro-1-piperidyl)-4-quinolyl]amino]benzoic acid] | < 0.001 µM | < 0.001 µM | > 5 °C | > 5 °C | > 5 °C | 95 nM | maturation of TERC 3′ end processing | maturation of TERC 3′ end processing |  | TERC 3′ ends in human CD19+ cells (RACE) [5, 10]: maturation of TERC 3′ ends; engraftment of CD45+, CD19+, CD34+ human blood cells [6, 11]: no change in engraftment |
| O=C(O)c1cc(Cl)ccc1Nc1c(N2CCOCC2)cnc2ccc(Cl)cc12 [Compound 339A, 5-chloro-2-[(6-chloro-3-morpholino-4-quinolyl)amino]benzoic acid] | < 0.001 µM | < 0.001 µM | > 5 °C | > 5 °C |  | 75 nM | maturation of TERC 3′ end processing | maturation of TERC 3′ end processing | > 5 °C | TERC 3′ ends in human CD19+ cells (RACE) ([5]; 1 mM in drinking water for 7 days (FIG. 41C)): maturation of TERC 3′ ends; engraftment of CD45+, CD19+, CD34+ human blood cells ([6]; 1 mM in drinking water for 7 days): no change in engraftment |
| O=C(O)c1cc(Cl)ccc1Nc1c(C2=CCOCC2)cnc2ccc(Cl)cc12 [Compound 297A, 5-chloro-2-[[6-chloro-3-(3,6-dihydro-2H-pyran-4-yl)-4-quinolyl]amino]benzoic acid] |  |  |  |  |  | 42 nM |  |  | > 5 °C | TERC 3′ ends in human CD19+ cells (RACE) [5, 10]: maturation of TERC 3′ ends; engraftment of CD45+, CD19+, CD34+ human blood cells [6, 11]: no change in engraftment |
| O=C(O)c1cc(Cl)ccc1Nc1c(C2=CCC(F)(F)CC2)cnc2ccc(Cl)cc12 [Compound 344A, 5-chloro-2-[[6-chloro-3-(4,4-difluorocyclohexen-1-yl)-4-quinolyl]amino]benzoic acid] | < 0.001 µM | < 0.001 µM | > 5 °C | > 5 °C | > 5 °C | 600 nM |  |  |  | TERC 3′ ends in human CD19+ cells (RACE) ([5]; 32 mg/kg/dose every other day for 4 days (FIG. 41B)): maturation of TERC 3′ ends; aberrant TERC oligo-adenylation in xenotransplanted PARN-deficient human blood cells [5, 13]: significantly reversed; engraftment of CD45+, CD19+, CD34+ human blood cells [6, 13]: no change in engraftment |
| O=C(O)c1cc(Cl)ccc1Nc1c(N2CCC(F)(F)CC2)cnc2ccc(Cl)cc12 [Compound 340A, 5-chloro-2-[[6-chloro-3-(4,4-difluoro-1-piperidyl)-4-quinolyl]amino]benzoic acid] | < 0.001 µM | < 0.001 µM | > 5 °C | > 5 °C | > 5 °C | 50 nM | maturation of TERC 3′ end processing | maturation of TERC 3′ end processing |  |  |
| O=C(O)c1cc(Cl)ccc1Nc1c(CN2CCOCC2)cnc2ccc(Cl)cc12 [Compound 371A, 5-chloro-2-[[6-chloro-3-(morpholinomethyl)-4-quinolyl]amino]benzoic acid] | 0.001 to 1 µM | < 0.001 µM | > 5 °C | > 5 °C |  | 145 nM | maturation of TERC 3′ end processing | maturation of TERC 3′ end processing | > 5 °C |  |
| Cc1cc(Cl)cc2c(Nc3ccc(Cl)cc3C(=O)O)c(S(=O)(=O)N3CCSCC3)cnc12 [Compound 417A, 5-chloro-2-[(6-chloro-8-methyl-3-thiomorpholinosulfonyl-4-quinolyl)amino]benzoic acid] |  |  |  |  |  | 71 nM |  | maturation of TERC 3′ end processing |  | minimal effective concentration [1]: < 0.001 µM; minimal effective concentration [2]: < 0.001 µM; ΔTm at 10 µM (rPAPD5; read-out: ΔTm (Table 2, starred: the compound was tested at 10 μM)): > 5 °C; ΔTm at 1 µM (rPAPD5): > 5 °C; ΔTm at 10 µM (rPAPD5; read-out: ΔTm at 10 μM): > 5 °C |
| O=C(O)c1cc(Cl)ccc1Nc1c(C2CCOCC2)cnc2ccc(Cl)cc12 [Compound 296A, 5-chloro-2-[(6-chloro-3-tetrahydropyran-4-yl-4-quinolyl)amino]benzoic acid] |  |  |  |  |  | 5 nM | maturation of TERC 3′ end processing | maturation of TERC 3′ end processing |  | concentration showing maturation of TERC 3′ end processing by RACE ([1]; DC patient iPSCs): 1 nM; concentration at which telomere elongation was observed ([2]; DC patient iPSCs, after 3-4 weeks of cell culture): 1 nM; ΔTm at 100 µM (rPAPD5): > 5 °C; TERC 3′ ends in human CD19+ cells (RACE) ([5]; 32 mg/kg/dose twice daily for 11 doses, with 250 μM in drinking water (FIG. 41A)): maturation of TERC 3′ ends; aberrant TERC oligo-adenylation in xenotransplanted PARN-deficient human blood cells [5, 14]: significantly reversed; engraftment of CD45+, CD19+, CD34+ human blood cells [6, 14]: no change in engraftment |

From patent US20250026769A1, “PAPD5 INHIBITORS AND METHODS OF USE THEREOF” (The Children's Medical Center Corporation, priority 2021, published 2025)
